The assay has as its target T1, 5-HT1AR (serotonin 1A receptor) (Homo sapiens, UniProt P08908).
T1 sequence (P08908 1-422): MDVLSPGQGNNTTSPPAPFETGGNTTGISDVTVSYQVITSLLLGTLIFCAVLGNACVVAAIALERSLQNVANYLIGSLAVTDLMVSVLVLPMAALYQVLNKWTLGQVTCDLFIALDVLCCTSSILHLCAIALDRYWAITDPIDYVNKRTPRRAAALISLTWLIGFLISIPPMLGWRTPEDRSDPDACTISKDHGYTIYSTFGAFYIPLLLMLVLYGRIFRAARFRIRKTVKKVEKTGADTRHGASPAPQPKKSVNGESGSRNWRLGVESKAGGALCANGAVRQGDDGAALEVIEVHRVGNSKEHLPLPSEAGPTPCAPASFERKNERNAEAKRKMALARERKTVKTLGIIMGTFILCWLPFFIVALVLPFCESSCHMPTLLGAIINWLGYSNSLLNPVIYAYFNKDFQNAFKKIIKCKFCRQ
The assay is described as follows: G protein nanoBRET. Format: cell-based.
The EC50 is the concentration giving half of the maximal effect. In turn, `Cc1cnc(CNCC2(F)CCN(C(=O)c3ccc(F)c(Cl)c3)CC2)nc1` [F-15599] gave an EC50 of 537 nM.

The compound `O=c1[nH]c2ccccc2n1CCN1CCN(c2cccc(C(F)(F)F)c2)CC1` [Flibanserin] gave an EC50 of 170 nM.

Take `COc1cc2c3c(c1OC)-c1ccccc1C[C@H]3N(C)CC2` [Nuciferine]: the EC50 is 16600 nM.

These data come from article PMC10586511 (Molecular Pharmacology, 2023).
